Source: US10597388B2, “Pyridazinone herbicides” (FMC CORPORATION, priority 2014, dated 2020)

Experiments:
Format in all cases: in vivo
[1] = tested on: waterhemp_RES1 (ALS & Triazine resistant common waterhemp, Amaranthus rudis); test: Test E greenhouse herbicide test, postemergence
In short: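 Seedlings were raised in pots of peat moss and vermiculite medium with starter nutrients until they reached the 1- to 4-leaf stage. They were then treated postemergence and held in a greenhouse for 14–21 d. Finally, response was scored visually on a 0–100 control scale.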

[2] = tested on: dayflower (Virginia (VA) dayflower, Commelina virginica); test: Test E greenhouse herbicide test, pre- and postemergence
Source text: (§1) Seeds of plant species selected from corn (Zea mays), soybean (Glycine max), velvetleaf (Abutilon theophrasti), lambsquarters (Chenopodium album), wild poinsettia (Euphorbia heterophylla), pigweed, palmer (palmer pigweed, Amaranthus palmeri), waterhemp (common waterhemp, Amaranthus rudis), surinam grass (Brachiaria decumbens), crabgrass, large (large crabgrass, Digitaria sanguinalis), crabgrass, Brazilian (Brazilian crabgrass, Digitaria horizontalis), panicum, fall (fall panicum, Panicum dichotomiflorum), foxtail, giant (giant foxtail, Setaria faberii), foxtail, green (green foxtail, Setaria viridis), goosegrass (Eleusine indica), johnsongrass (Sorghum halepense), ragweed (common ragweed, Ambrosia elatior), barnyardgrass (Echinochloa crus-galli), sandbur (southem sandbur, Cenchrus echinatus), arrowleaf sida (Sida rhombifolia), Italian ryegrass (Lolium multiflorum), dayflower (Virginia (VA) dayflower, Commelina virginica), field bindweed (Convolvulus arvensis), momingglory (Ipomoea coccinea), nightshade (eastern black nightshade, Solanum ptycanthum), kochia (Kochia scoparia), nutsedge, yellow (yellow nutsedge, Cyperus esculentus), horseweed (Conyza canadensis), and beggarticks (hairy beggarticks, Bidens pilosa), were planted into a silt loam soil and treated preemergence with test chemicals formulated in a non-phytotoxic solvent mixture which included a surfactant.
(§2) At the same time, plants from these crop and weed species and also waterhemp_RES1, (ALS & Triazine resistant common waterhemp, Amaranthus rudis), and waterhemp_RES2, (ALS & HPPD resistant common waterhemp, Amaranthus rudis) were planted in pots containing Redi-Earth® planting medium (Scotts Company, 14111 Scottslawn Road, Marysville, Ohio 43041) comprising spaghnum peat moss, vermiculite, wetting agent and starter nutrients were treated with postemergence applications of test chemicals formulated in the same manner. Plants ranged in height from 2 to 18 cm for postemergence treatments (1- to 4-leaf stage). Treated plants and controls were maintained in a greenhouse for 14 to 21 d, after which time all species were compared to controls and visually evaluated. Plant response ratings, summarized in Table E, are based on a scale of 0 to 100 where 0 is no effect and 100 is complete control. A dash (-) response means no test result.

[3] = tested on: foxtail, giant (giant foxtail, Setaria faberii); test: as above; conditions: Preemergence
Source text: as §1, §2

[4] = tested on: panicum, fall (fall panicum, Panicum dichotomiflorum); test: as above
Source text: as §1, §2

soybean (Glycine max) = test: as above
Source text: as §1, §2

[5] = tested on: sandbur (southem sandbur, Cenchrus echinatus); test: as above
Source text: as §1, §2

[6] = tested on: crabgrass, large (large crabgrass, Digitaria sanguinalis); test: as above; conditions: Preemergence
Source text: as §1, §2

[7] = tested on: velvetleaf (Abutilon theophrasti); test: as above; conditions: Preemergence
Source text: as §1, §2

corn (Zea mays) = test: as above
Source text: as §1, §2

[8] = tested on: foxtail, green (green foxtail, Setaria viridis); test: as above; conditions: Preemergence
Source text: as §1, §2

[9] = tested on: johnsongrass (Sorghum halepense); test: as above; conditions: Preemergence
Source text: as §1, §2

[10] = tested on: nutsedge, yellow (yellow nutsedge, Cyperus esculentus); test: as above; conditions: Preemergence
Source text: as §1, §2

[11] = tested on: lambsquarters (Chenopodium album); test: as above; conditions: Preemergence
Source text: as §1, §2

[12] = tested on: pigweed, palmer (palmer pigweed, Amaranthus palmeri); test: as above
Source text: as §1, §2

[13] = tested on: crabgrass, Brazilian (Brazilian crabgrass, Digitaria horizontalis); test: as above
Source text: as §1, §2

kochia (Kochia scoparia) = test: as above; conditions: Preemergence
Source text: as §1, §2

[14] = 62 g ai/ha, scale 0 to 100 (0 no effect, 100 complete control)
[15] = 125 g ai/ha, scale 0 to 100 (0 no effect, 100 complete control)
[16] = 62 g ai/ha, Postemergence, scale 0 to 100 (0 no effect, 100 complete control)
[17] = 62 g ai/ha, Preemergence, scale 0 to 100 (0 no effect, 100 complete control)
[18] = 125 g ai/ha, Postemergence, scale 0 to 100 (0 no effect, 100 complete control)
[19] = 250 g ai/ha, Postemergence, scale 0 to 100 (0 no effect, 100 complete control)
[20] = Postemergence, 16 g ai/ha, visual, scale 0 no effect to 100 complete control
[21] = Postemergence, 31 g ai/ha, visual, scale 0 no effect to 100 complete control
[22] = Preemergence, 16 g ai/ha, scale 0 to 100, 0 no effect, 100 complete control
[23] = Preemergence, 31 g ai/ha, scale 0 to 100, 0 no effect, 100 complete control
[24] = Preemergence, 125 g ai/ha, visual, scale 0 no effect to 100 complete control
[25] = Preemergence, 250 g ai/ha, visual, scale 0 no effect to 100 complete control
[26] = 16 g ai/ha, scale 0 to 100, 0 no effect, 100 complete control
[27] = 31 g ai/ha, scale 0 to 100, 0 no effect, 100 complete control
[28] = 125 g ai/ha, visual, scale 0 no effect to 100 complete control
[29] = 250 g ai/ha, visual, scale 0 no effect to 100 complete control
[30] = 125 g ai/ha, Preemergence, scale 0 to 100 (0 no effect, 100 complete control)

Cc1cc(C)c2sc(C)c(-c3c(O)c(C)nn(C)c3=O)c2c1 [Compound 2, 5-hydroxy-2,6-dimethyl-4-(2,5,7-trimethylbenzo[b]thien-3-yl)-3(2H)-pyridazinone]
Plant response rating, Waterhemp_RES1 ([1]; 16 g ai/ha, visual, scale 0 no effect to 100 complete control): 65
Plant response rating, Waterhemp_RES1 ([1]; 31 g ai/ha, visual, scale 0 no effect to 100 complete control): 70
Plant response rating, Waterhemp_RES1 [1, 14]: 70
Plant response rating, Waterhemp_RES1 [1, 15]: 70
Plant response rating, Waterhemp_RES1 ([1]; 250 g ai/ha, scale 0 to 100 (0 no effect, 100 complete control)): 100
Plant response rating, Dayflower, VA [2, 16]: 15
Plant response rating, Dayflower, VA [2, 17]: 20
Plant response rating, Dayflower, VA [2, 18]: 65
Plant response rating, Dayflower, VA [2, 19]: 65
Plant response rating, Dayflower, VA [2, 20]: 0
Plant response rating, Dayflower, VA [2, 21]: 20
Plant response rating, Dayflower, VA [2, 22]: 0
Plant response rating, Dayflower, VA [2, 23]: 15
Plant response rating, Dayflower, VA [2, 24]: 25
Plant response rating, Dayflower, VA [2, 25]: 90
Plant response rating, Foxtail, Giant [3, 14]: 95
Plant response rating, Foxtail, Giant [3, 26]: 40
Plant response rating, Foxtail, Giant [3, 27]: 75
Plant response rating, Foxtail, Giant [3, 28]: 98
Plant response rating, Foxtail, Giant [3, 29]: 98
Plant response rating, Panicum, Fall [4, 16]: 70
Plant response rating, Panicum, Fall [4, 17]: 95
Plant response rating, Panicum, Fall [4, 18]: 85
Plant response rating, Panicum, Fall [4, 30]: 98
Plant response rating, Panicum, Fall [4, 19]: 90
Plant response rating, Panicum, Fall [4, 20]: 60
Plant response rating, Panicum, Fall [4, 21]: 70
Plant response rating, Panicum, Fall [4, 22]: 75
Plant response rating, Panicum, Fall [4, 23]: 85
Plant response rating, Panicum, Fall [4, 25]: 100
Plant response rating, Soybean (soybean (Glycine max); [16]): 0
Plant response rating, Soybean (soybean (Glycine max); [17]): 0
Plant response rating, Soybean (soybean (Glycine max); [18]): 0
Plant response rating, Soybean (soybean (Glycine max); [30]): 15
Plant response rating, Soybean (soybean (Glycine max); [19]): 0
Plant response rating, Soybean (soybean (Glycine max); [20]): 0
Plant response rating, Soybean (soybean (Glycine max); [21]): 0
Plant response rating, Soybean (soybean (Glycine max); [22]): 0
Plant response rating, Soybean (soybean (Glycine max); [23]): 0
Plant response rating, Soybean (soybean (Glycine max); [25]): 40
Plant response rating, Sandbur [5, 16]: 15
Plant response rating, Sandbur [5, 17]: 15
Plant response rating, Sandbur [5, 18]: 20
Plant response rating, Sandbur [5, 30]: 70
Plant response rating, Sandbur [5, 19]: 30
Plant response rating, Sandbur [5, 20]: 5
Plant response rating, Sandbur [5, 21]: 10
Plant response rating, Sandbur [5, 22]: 0
Plant response rating, Sandbur [5, 23]: 15
Plant response rating, Sandbur [5, 25]: 75
Plant response rating, Crabgrass, Large [6, 14]: 0
Plant response rating, Crabgrass, Large [6, 26]: 0
Plant response rating, Crabgrass, Large [6, 27]: 0
Plant response rating, Crabgrass, Large [6, 28]: 30
Plant response rating, Crabgrass, Large [6, 29]: 60
Plant response rating, Velvetleaf [7, 14]: 60
Plant response rating, Velvetleaf [7, 15]: 80
Plant response rating, Velvetleaf [7, 26]: 0
Plant response rating, Velvetleaf [7, 27]: 30
Plant response rating, Velvetleaf [7, 29]: 90
Plant response rating, Corn (corn (Zea mays); [16]): 0
Plant response rating, Corn (corn (Zea mays); [17]): 0
Plant response rating, Corn (corn (Zea mays); [18]): 5
Plant response rating, Corn (corn (Zea mays); [19]): 5
Plant response rating, Corn (corn (Zea mays); [20]): 0
Plant response rating, Corn (corn (Zea mays); [21]): 0
Plant response rating, Corn (corn (Zea mays); [22]): 0
Plant response rating, Corn (corn (Zea mays); [23]): 0
Plant response rating, Corn (corn (Zea mays); [24]): 0
Plant response rating, Corn (corn (Zea mays); [25]): 0
Plant response rating, Foxtail, Green [8, 14]: 95
Plant response rating, Foxtail, Green [8, 26]: 0
Plant response rating, Foxtail, Green [8, 27]: 35
Plant response rating, Foxtail, Green [8, 28]: 95
Plant response rating, Foxtail, Green [8, 29]: 98
Plant response rating, Johnsongrass [9, 14]: 20
Plant response rating, Johnsongrass [9, 26]: 0
Plant response rating, Johnsongrass [9, 27]: 35
Plant response rating, Johnsongrass [9, 28]: 35
Plant response rating, Johnsongrass [9, 29]: 50
Plant response rating, Nutsedge, Yellow [10, 14]: 35
Plant response rating, Nutsedge, Yellow [10, 15]: 65
Plant response rating, Nutsedge, Yellow [10, 26]: 0
Plant response rating, Nutsedge, Yellow [10, 27]: 0
Plant response rating, Nutsedge, Yellow [10, 29]: 70
Plant response rating, Lambsquarters [11, 14]: 98
Plant response rating, Lambsquarters [11, 26]: 50
Plant response rating, Lambsquarters [11, 27]: 100
Plant response rating, Lambsquarters [11, 28]: 98
Plant response rating, Lambsquarters [11, 29]: 100
Plant response rating, Pigweed, Palmer [12, 16]: 5
Plant response rating, Pigweed, Palmer [12, 17]: 50
Plant response rating, Pigweed, Palmer [12, 18]: 5
Plant response rating, Pigweed, Palmer [12, 30]: 90
Plant response rating, Pigweed, Palmer [12, 19]: 35
Plant response rating, Pigweed, Palmer [12, 20]: 0
Plant response rating, Pigweed, Palmer [12, 21]: 50
Plant response rating, Pigweed, Palmer [12, 22]: 0
Plant response rating, Pigweed, Palmer [12, 23]: 20
Plant response rating, Pigweed, Palmer [12, 25]: 100
Plant response rating, Crabgrass, Brazil [13, 16]: 0
Plant response rating, Crabgrass, Brazil [13, 17]: 60
Plant response rating, Crabgrass, Brazil [13, 18]: 10
Plant response rating, Crabgrass, Brazil [13, 19]: 15
Plant response rating, Crabgrass, Brazil [13, 20]: 0
Plant response rating, Crabgrass, Brazil [13, 21]: 10
Plant response rating, Crabgrass, Brazil [13, 22]: 0
Plant response rating, Crabgrass, Brazil [13, 23]: 35
Plant response rating, Crabgrass, Brazil [13, 24]: 50
Plant response rating, Crabgrass, Brazil [13, 25]: 100
Plant response rating, Kochia (kochia (Kochia scoparia); [14]): 0
Plant response rating, Kochia (kochia (Kochia scoparia); [26]): 0
Plant response rating, Kochia (kochia (Kochia scoparia); [27]): 0
Plant response rating, Kochia (kochia (Kochia scoparia); [28]): 0
Plant response rating, Kochia (kochia (Kochia scoparia); [29]): 40
